In PubChem BioAssay (NCI):
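Results reflect a 48-hour exposure of cells in 96-well plates to compound at five concentrations. GI50 is the concentration that inhibits growth by half. TGI marks complete inhibition of growth.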

Tests used:
Experiment in all cases: growth of human tumour cells (NCI), 48 h
[1] = test system: 786-0 renal
[2] = test system: A498 renal
[3] = test system: A549 NSCLC
[4] = test system: ACHN renal
[5] = test system: BT-549 breast
[6] = test system: CAKI-1 renal
[7] = test system: CCRF-CEM leukemia
[8] = test system: COLO 205 colon
[9] = test system: DU-145 prostate
[10] = test system: EKVX NSCLC
[11] = test system: HCC-2998 colon
[12] = test system: HCT-116 colon
[13] = test system: HCT-15 colon
[14] = test system: HL-60(TB) leukemia
[15] = test system: HOP-62 NSCLC
[16] = test system: HOP-92 NSCLC
[17] = test system: HS 578T breast
[18] = test system: HT29 colon
[19] = test system: IGROV1 ovarian
[20] = test system: K-562 leukemia
[21] = test system: KM12 colon
[22] = test system: LOX IMVI melanoma
[23] = test system: M14 melanoma
[24] = test system: MALME-3M melanoma
[25] = test system: MCF7 breast
[26] = test system: MDA-MB-231 breast
[27] = test system: MDA-MB-435
[28] = test system: MDA-N
[29] = test system: MOLT-4 leukemia
[30] = test system: NCI-H226 lung
[31] = test system: NCI-H23 lung
[32] = test system: NCI-H460 lung
[33] = test system: NCI/ADR-RES ovarian
[34] = test system: OVCAR-3 ovarian
[35] = test system: OVCAR-4 ovarian
[36] = test system: OVCAR-5 ovarian
[37] = test system: OVCAR-8 ovarian
[38] = test system: PC-3 prostate
[39] = test system: RPMI-8226 leukemia
[40] = test system: RXF 393 renal
[41] = test system: SF-268 CNS
[42] = test system: SF-295 CNS
[43] = test system: SF-539 CNS
[44] = test system: SK-MEL-2 melanoma
[45] = test system: SK-MEL-28 melanoma
[46] = test system: SK-MEL-5 melanoma
[47] = test system: SK-OV-3 ovarian
[48] = test system: SN12C renal
[49] = test system: SNB-19 CNS
[50] = test system: SNB-75 CNS
[51] = test system: SR leukemia
[52] = test system: SW-620 colon
[53] = test system: T-47D breast
[54] = test system: TK-10 renal
[55] = test system: U251 CNS
[56] = test system: UACC-257 melanoma
[57] = test system: UACC-62 melanoma
[58] = test system: UO-31 renal
[59] = test system: NCI-H522 lung

Compound `OC1(c2ccccc2)CC2CCC(C1)N2CCc1ccccc1` (configuration not stated) has a TGI [1] greater than 100 µM, a TGI [2] of 56.4 µM and a TGI [3] greater than 100 µM. For the same compound, the TGI [4] was greater than 100 µM, the TGI [5] was greater than 100 µM and the TGI [6] was greater than 100 µM. It also gave a TGI [7] greater than 100 µM, a TGI [8] of 35.7 µM and a TGI [9] greater than 100 µM. It also gave a TGI [10] greater than 100 µM, a TGI [11] greater than 100 µM and a TGI [12] greater than 100 µM. For the same compound, the TGI [13] was greater than 100 µM, the TGI [14] was greater than 100 µM and the TGI [15] was greater than 100 µM. It also gave a TGI [16] greater than 100 µM, a TGI [17] of 80.6 µM and a TGI [18] of 79.3 µM. For the same compound, the TGI [19] was greater than 100 µM, the TGI [20] was greater than 100 µM and the TGI [21] was greater than 100 µM. It also gave a TGI [22] greater than 100 µM, a TGI [23] greater than 100 µM and a TGI [24] greater than 100 µM. It also gave a TGI [25] of 78.1 µM, a TGI [26] greater than 100 µM and a TGI [27] greater than 100 µM. It also gave a TGI [28] greater than 100 µM, a TGI [29] greater than 100 µM and a TGI [30] greater than 100 µM. The TGI [31] was greater than 100 µM, the TGI [32] was greater than 100 µM and the TGI [33] was greater than 100 µM. It also gave a TGI [34] greater than 100 µM, a TGI [35] greater than 100 µM and a TGI [36] greater than 100 µM. The TGI [37] was greater than 100 µM, the TGI [38] was greater than 100 µM and the TGI [39] was greater than 100 µM. The TGI [40] was greater than 100 µM, the TGI [41] was greater than 100 µM and the TGI [42] was greater than 100 µM. For the same compound, the TGI [43] was greater than 100 µM, the TGI [44] was greater than 100 µM and the TGI [45] was greater than 100 µM. The TGI [46] was 28.6 µM, the TGI [47] was greater than 100 µM and the TGI [48] was greater than 100 µM. It also gave a TGI [49] greater than 100 µM, a TGI [50] greater than 100 µM and a TGI [51] greater than 100 µM. It also gave a TGI [52] greater than 100 µM, a TGI [53] greater than 100 µM and a TGI [54] greater than 100 µM. For the same compound, the TGI [55] was greater than 100 µM, the TGI [56] was 59.1 µM and the TGI [57] was greater than 100 µM. For the same compound, the TGI [58] was greater than 100 µM.

`CSC(SC)=C1CC(=O)Nc2ccccc2C1=O` showed a TGI [1] greater than 100 µM, a TGI [2] greater than 100 µM and a TGI [3] greater than 100 µM. It also gave a TGI [4] greater than 100 µM, a TGI [5] greater than 100 µM and a TGI [6] of 94.1 µM. It also gave a TGI [7] of 52.7 µM, a TGI [8] greater than 100 µM and a TGI [9] greater than 100 µM. It also gave a TGI [10] greater than 100 µM, a TGI [11] greater than 100 µM and a TGI [12] greater than 100 µM. It also gave a TGI [13] greater than 100 µM, a TGI [14] greater than 100 µM and a TGI [15] greater than 100 µM. It also gave a TGI [16] of 78.4 µM, a TGI [17] greater than 100 µM and a TGI [18] greater than 100 µM. For the same compound, the TGI [19] was greater than 100 µM, the TGI [20] was 95.8 µM and the TGI [21] was greater than 100 µM. For the same compound, the TGI [22] was 32.5 µM, the TGI [23] was greater than 100 µM and the TGI [24] was greater than 100 µM. It also gave a TGI [25] greater than 100 µM, a TGI [26] greater than 100 µM and a TGI [27] greater than 100 µM. It also gave a TGI [28] greater than 100 µM, a TGI [29] of 96 µM and a TGI [30] greater than 100 µM. For the same compound, the TGI [31] was greater than 100 µM, the TGI [32] was greater than 100 µM and the TGI [59] was greater than 100 µM. It also gave a TGI [33] greater than 100 µM, a TGI [34] greater than 100 µM and a TGI [35] greater than 100 µM. The TGI [36] was greater than 100 µM, the TGI [37] was greater than 100 µM and the TGI [38] was greater than 100 µM. For the same compound, the TGI [40] was 52.8 µM, the TGI [41] was greater than 100 µM and the TGI [42] was greater than 100 µM. The TGI [43] was greater than 100 µM, the TGI [44] was greater than 100 µM and the TGI [45] was greater than 100 µM. For the same compound, the TGI [46] was greater than 100 µM, the TGI [47] was greater than 100 µM and the TGI [48] was greater than 100 µM. It also gave a TGI [49] greater than 100 µM, a TGI [51] greater than 100 µM and a TGI [53] of 56.5 µM. The TGI [54] was greater than 100 µM, the TGI [55] was greater than 100 µM and the TGI [56] was greater than 100 µM. It also gave a TGI [57] greater than 100 µM and a TGI [58] greater than 100 µM.

`Cc1ccc(S(=O)ON2CCC(C(=O)O)(c3ccccc3)CC2)cc1` (configuration not stated) was tested, and the TGI [1] was greater than 32.2 µM, the TGI [2] was greater than 100 µM and the TGI [3] was greater than 100 µM. The TGI [4] was greater than 100 µM, the TGI [5] was greater than 100 µM and the TGI [6] was greater than 100 µM. The TGI [7] was greater than 100 µM, the TGI [8] was greater than 100 µM and the TGI [9] was greater than 100 µM. The TGI [10] was greater than 100 µM, the TGI [11] was greater than 100 µM and the TGI [12] was greater than 100 µM. It also gave a TGI [13] greater than 100 µM, a TGI [14] greater than 100 µM and a TGI [15] greater than 100 µM. It also gave a TGI [16] greater than 100 µM, a TGI [17] greater than 100 µM and a TGI [18] greater than 100 µM. For the same compound, the TGI [19] was greater than 100 µM, the TGI [20] was greater than 100 µM and the TGI [21] was greater than 100 µM. The TGI [22] was greater than 100 µM, the TGI [23] was greater than 100 µM and the TGI [24] was greater than 100 µM. For the same compound, the TGI [25] was greater than 100 µM, the TGI [26] was greater than 100 µM and the TGI [27] was greater than 100 µM. It also gave a TGI [28] greater than 100 µM, a TGI [29] greater than 100 µM and a TGI [30] greater than 100 µM. It also gave a TGI [31] greater than 100 µM, a TGI [32] greater than 100 µM and a TGI [59] greater than 100 µM. It also gave a TGI [33] greater than 100 µM, a TGI [34] greater than 100 µM and a TGI [35] greater than 100 µM. The TGI [36] was greater than 100 µM, the TGI [37] was greater than 100 µM and the TGI [38] was greater than 100 µM. For the same compound, the TGI [39] was greater than 100 µM, the TGI [40] was greater than 100 µM and the TGI [41] was greater than 100 µM. For the same compound, the TGI [42] was greater than 100 µM, the GI50 [43] was greater than 100 µM and the TGI [43] was greater than 100 µM. It also gave a GI50 [44] greater than 100 µM, a TGI [44] greater than 100 µM and a TGI [45] greater than 100 µM. It also gave a TGI [46] greater than 100 µM, a TGI [47] greater than 100 µM and a TGI [48] greater than 100 µM. The TGI [49] was greater than 100 µM, the TGI [50] was greater than 100 µM and the GI50 [51] was greater than 100 µM. It also gave a TGI [51] greater than 100 µM, a TGI [52] greater than 100 µM and a TGI [53] greater than 100 µM. The TGI [54] was greater than 100 µM, the TGI [55] was greater than 100 µM and the TGI [56] was greater than 100 µM. It also gave a TGI [57] greater than 100 µM and a TGI [58] greater than 100 µM.

`CCCC1NC(=O)C(CC(C)C)NC(=O)c2cccc(n2)C(=O)NC(CC(C)C)C(=O)NC(CCC)C(=O)NC(C(=O)OC)CCCCNC1=O` (configuration not stated) was tested, and the TGI [1] was greater than 100 µM, the TGI [2] was greater than 100 µM and the TGI [3] was greater than 100 µM. It also gave a TGI [5] of 76 µM, a TGI [6] greater than 100 µM and a TGI [7] of 36.6 µM. The TGI [8] was greater than 100 µM, the TGI [9] was greater than 100 µM and the TGI [10] was 90.9 µM. The TGI [11] was 41.7 µM, the TGI [12] was greater than 100 µM and the TGI [13] was greater than 100 µM. The TGI [15] was greater than 100 µM, the TGI [16] was 65.9 µM and the TGI [17] was greater than 100 µM. The TGI [18] was 94.5 µM, the TGI [19] was greater than 100 µM and the TGI [20] was 53.7 µM. The TGI [21] was 59.3 µM, the TGI [22] was 44.4 µM and the TGI [23] was greater than 100 µM. The TGI [24] was 62.8 µM, the TGI [25] was greater than 100 µM and the TGI [26] was 48.9 µM. It also gave a TGI [27] greater than 100 µM, a TGI [28] greater than 100 µM and a TGI [29] of 44.8 µM. For the same compound, the TGI [30] was 71.4 µM, the TGI [31] was greater than 100 µM and the TGI [32] was greater than 100 µM. The TGI [33] was greater than 100 µM, the TGI [34] was greater than 100 µM and the TGI [35] was greater than 100 µM. For the same compound, the TGI [36] was greater than 100 µM, the TGI [37] was greater than 100 µM and the TGI [38] was 91.3 µM. For the same compound, the TGI [39] was 32 µM, the TGI [40] was greater than 100 µM and the TGI [41] was greater than 100 µM. It also gave a TGI [42] greater than 100 µM, a TGI [43] of 45.1 µM and a TGI [44] greater than 100 µM. The TGI [45] was 78.9 µM, the TGI [46] was greater than 100 µM and the TGI [47] was 91.5 µM. It also gave a TGI [48] greater than 100 µM, a TGI [49] greater than 100 µM and a TGI [50] of 57.7 µM. It also gave a TGI [51] of 65.6 µM, a TGI [52] greater than 100 µM and a TGI [53] greater than 100 µM. The TGI [54] was greater than 100 µM, the TGI [55] was greater than 100 µM and the TGI [56] was greater than 100 µM. It also gave a TGI [57] of 51.5 µM and a TGI [58] greater than 100 µM.
